Test results as given in patent publication US10894798B2, “Substituted dihydropyrrolopyrazole derivative” (UBE INDUSTRIES, LTD., priority 2015, dated 2021).
pKi: −log10 of the molar value.

Experiments:
CDK2 = biological target: T1, CDK2 (Homo sapiens, UniProt P24941); assay: CDK2 enzyme inhibition test; type: biochemical; settings: [γ-33P]ATP, MBP substrate; Ki=IC50/(1+S/Km); read-out: Ki value of CDK2 inhibitory activity
T1 construct: purchased Invitrogen Corp. PV3267
Experimental: (§1) The preparation of a buffer solution was performed by mixing a N-2-hydroxyethylpiperazine-N′-2-ethanesulfonic acid buffer solution (HEPES buffer solution) (pH 7.4), dithiothreitol (DTT), Triton X-100, and magnesium chloride (MgCl2). A 500 μM [γ-^33P]ATP solution was used by diluting a 10 mM ATP solution and a commercially available [γ-^33P]ATP solution (manufactured by Perkin Elmer, Inc., Code No. NEG-302H) with the buffer solution. A CDK2 solution was used by diluting commercially available CDK2 (manufactured by Invitrogen Corp., Catalog No. PV3267) with the buffer solution. A substrate solution was used by diluting myelin basic protein (MBP) with the buffer solution. As for the preparation of a reaction solution, the buffer solution, the 500 μM [γ-^33P]ATP solution, the CDK2 solution, and the substrate solution were mixed at 4° C. to obtain a reaction solution.
(§2) CDK2 enzyme reaction was performed by adding 5 μL of a test compound solution prepared with 10% DMSO/90% injectable distilled water, and 45 μL of the reaction solution in a 1.5 mL microtube at 4° C. and reacting in the microtube at 30° C. for 20 minutes in a water bath incubator. After the reaction, a 10% aqueous trichloroacetic acid (TCA) solution was added to each microtube while cooled to 4° C., and mixed in a vortex mixer to terminate the reaction. The resultant was left standing at 4° C. for 10 minutes and then centrifuged, and the supernatant was discarded. Next, a 2% aqueous trichloroacetic acid (TCA) solution was added thereto, mixed in vortex mixer, and then centrifuged, and the supernatant was discarded. This washing operation was performed twice. After the washing, precipitates were dissolved in a 1 N aqueous sodium hydroxide (NaOH) solution, and the energy quantity (radioactivity) of the reaction product was measured with a liquid scintillation counter.
The calculation of the inhibitory activity of the test compound against CDK2 was performed as a test compound concentration inhibiting 50% of the amount of ^33P bound to MBP (IC50 value) by using EXSUS (version 8.1.0, manufactured by CAC Exicare Corp.).
(§3) The calculation of a Ki value was performed according to the following calculation expression wherein S represents the concentration of ATP contained in the reaction solution, and Km represents a Michaelis-Menten constant: Ki=IC50/(1+S/Km)

[1] = tested on: human large intestine cancer cell line (HCT-116); assay: Human large intestine cancer (HCT-116) cell growth inhibition test; type: cell-based; settings: HCT-116, 72 h, culture for 3 days, sulforhodamine B, read-out: GI50 value, HCT-116 cell growth inhibition
Experimental: The measurement of a human large intestine cancer cell growth inhibitory effect was carried out by modifying the method of Simak et al. (Cancer Research, 69, 6208 (2009)).
A human large intestine cancer cell line (HCT-116, obtained from DS Pharma Biomedical Co., Ltd.) was cultured in a McCoy's 5A medium (manufactured by Thermo Fisher Scientific, Inc.) containing 10% fetal bovine serum (FBS) (manufactured by Thermo Fisher Scientific, Inc.) and 1% penicillin/streptomycin/amphotericin B (manufactured by Thermo Fisher Scientific, Inc.) and inoculated at 0.5 to 2.0×10^3 cells/well in a 96-well plate. After overnight culture in a carbon dioxide incubator, the medium was replaced with a fresh medium on the next day, and a test compound dissolved in DMSO (final DMSO concentration: 0.1%) was added thereto and left standing in a carbon dioxide incubator. After culture for 3 days, the absorbance thereof was measured by using In Vitro Toxicology Assay Kit Sulforhodamine B based (manufactured by Sigma-Aldrich Co. LLC.).
The rate of inhibition of cell growth at each concentration was calculated from the test compound concentration and the absorbance of sulforhodamine B, and the concentration of the test compound necessary for inhibiting 50% of cell growth (GI50 value) was calculated by using EXSUS (version 8.1.0, manufactured by CAC Exicare Corp.).

CDK7 = biological target: T2, CDK7 (Homo sapiens, UniProt P50613); assay: CDK7 enzyme inhibition test; type: biochemical; settings: [γ-33P]ATP, MBP substrate, 60 min preincubation at 25°C; Ki=IC50/(1+S/Km); read-out: Ki value of CDK7 inhibitory activity
T2 construct: purchased Carna Biosciences, Inc. 04-108
T2 sequence (P50613 whole entry): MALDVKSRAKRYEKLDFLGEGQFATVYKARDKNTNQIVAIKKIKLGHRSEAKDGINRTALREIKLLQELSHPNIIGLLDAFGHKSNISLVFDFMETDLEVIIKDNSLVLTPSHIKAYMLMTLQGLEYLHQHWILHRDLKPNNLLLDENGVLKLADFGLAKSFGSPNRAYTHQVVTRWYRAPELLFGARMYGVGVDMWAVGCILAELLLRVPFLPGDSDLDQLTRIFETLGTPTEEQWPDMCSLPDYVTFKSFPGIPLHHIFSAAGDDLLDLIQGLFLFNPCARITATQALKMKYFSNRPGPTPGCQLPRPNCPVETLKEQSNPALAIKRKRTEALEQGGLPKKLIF
T2 sequence (P51946 whole entry partner): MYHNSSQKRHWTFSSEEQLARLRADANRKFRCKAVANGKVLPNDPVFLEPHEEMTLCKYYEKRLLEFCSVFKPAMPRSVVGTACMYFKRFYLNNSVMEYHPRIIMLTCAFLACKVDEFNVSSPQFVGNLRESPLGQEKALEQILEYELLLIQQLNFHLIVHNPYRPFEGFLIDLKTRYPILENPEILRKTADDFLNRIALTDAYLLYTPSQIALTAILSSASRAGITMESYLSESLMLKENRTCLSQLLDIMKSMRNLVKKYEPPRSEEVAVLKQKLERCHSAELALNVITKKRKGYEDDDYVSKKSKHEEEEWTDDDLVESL
T2 sequence (P51948 whole entry partner): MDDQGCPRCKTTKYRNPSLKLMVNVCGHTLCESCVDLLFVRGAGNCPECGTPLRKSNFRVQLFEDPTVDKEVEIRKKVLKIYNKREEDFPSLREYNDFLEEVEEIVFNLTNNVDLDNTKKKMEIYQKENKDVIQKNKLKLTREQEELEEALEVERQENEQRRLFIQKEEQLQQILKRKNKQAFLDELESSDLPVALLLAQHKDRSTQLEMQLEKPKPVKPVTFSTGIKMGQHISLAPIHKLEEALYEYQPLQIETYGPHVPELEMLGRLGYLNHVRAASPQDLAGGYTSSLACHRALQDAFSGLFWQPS
Experimental: as §1, with “PerkinElmer,” for “Perkin Elmer,”, “CDK7” for “CDK2”, “Carna Biosciences, Inc.,” for “Invitrogen Corp.,”, “04-108)” for “PV3267)”, “CDK7” for “500 μM [γ-^33P]ATP solution, the CDK2”
CDK7 enzyme reaction was performed by adding 5 μL of a test compound solution prepared with 10% DMSO/90% injectable distilled water, and 40 μL of the reaction solution to a 1.5 mL microtube at 4° C. and preincubating the microtube at 25° C. for 60 minutes in a water bath incubator. Subsequently, reaction was performed at 30° C. for 20 minutes by adding 5 μL of the 500 μM [γ-^33P]ATP solution. After the reaction, a 10% aqueous trichloroacetic acid (TCA) solution was added to each microtube while cooled to 4° C., and mixed in a vortex mixer to terminate the reaction. The resultant was left standing at 4° C. for 10 minutes and then centrifuged, and the supernatant was discarded. Next, a 2% aqueous trichloroacetic acid (TCA) solution was added thereto, mixed in a vortex mixer, and then centrifuged, and the supernatant was discarded. This washing operation was performed twice. After the washing, precipitates were dissolved in a 1 N aqueous sodium hydroxide (NaOH) solution, and the energy quantity (radioactivity) of the reaction product was measured with a liquid scintillation counter.
The calculation of the inhibitory activity of the test compound against CDK7 was performed as a test compound concentration inhibiting 50% of the amount of ^33P bound to MBP (IC50 value) by using EXSUS (version 8.1.0, manufactured by CAC Exicare Corp.).
as §3

PLK1 = biological target: T3, PLK1 (Homo sapiens, UniProt P53350); assay: PLK1 enzyme (polo-like kinase) inhibition test; type: biochemical; settings: [γ-33P]ATP, casein substrate; Ki=IC50/(1+S/Km); read-out: Ki value of PLK1 inhibitory activity
T3 construct: purchased Carna Biosciences, Inc. 05-157
T3 sequence (P53350 whole entry): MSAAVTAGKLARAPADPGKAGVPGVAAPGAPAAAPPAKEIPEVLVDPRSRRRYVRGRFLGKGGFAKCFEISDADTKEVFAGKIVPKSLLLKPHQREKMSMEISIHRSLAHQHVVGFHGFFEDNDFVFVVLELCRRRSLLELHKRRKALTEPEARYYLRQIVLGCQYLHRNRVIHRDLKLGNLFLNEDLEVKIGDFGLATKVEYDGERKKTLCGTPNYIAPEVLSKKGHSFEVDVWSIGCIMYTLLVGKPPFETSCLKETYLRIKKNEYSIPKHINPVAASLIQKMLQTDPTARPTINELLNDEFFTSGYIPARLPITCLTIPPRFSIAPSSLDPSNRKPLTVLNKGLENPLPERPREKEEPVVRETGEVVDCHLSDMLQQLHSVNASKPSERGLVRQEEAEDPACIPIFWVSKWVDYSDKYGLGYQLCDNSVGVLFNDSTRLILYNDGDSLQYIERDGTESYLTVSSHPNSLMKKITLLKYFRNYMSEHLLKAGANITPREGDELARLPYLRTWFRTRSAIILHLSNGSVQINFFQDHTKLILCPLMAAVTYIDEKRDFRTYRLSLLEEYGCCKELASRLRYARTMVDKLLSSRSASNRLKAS
Experimental: The preparation of a buffer solution was performed by mixing a 3-morpholinopropanesulfonic acid buffer solution (MOPS buffer solution) (pH 7.0), dithiothreitol (DTT), and magnesium acetate (Mg(CH3COO)2). A 1 mM [γ-^33P]ATP solution was used by diluting a 10 mM ATP solution and a commercially available [γ-^33P]ATP solution (manufactured by Perkin Elmer, Inc., Code No. NEG-302H) with the buffer solution. A PLK1 solution was used by diluting commercially available PLK1 (manufactured by Carna Biosciences, Inc., Catalog No. 05-157) with the buffer solution. A substrate solution was used by diluting casein with the buffer solution. As for the preparation of a reaction solution, the buffer solution, the 500 μM [γ-^33P]ATP solution, the PLK1 solution, and the substrate solution were mixed at 4° C. to obtain a reaction solution.
as §2, with “PLK1 enzyme reaction” for “CDK2 enzyme reaction”, “mixed in a vortex mixer,” for “mixed in vortex mixer,”
The calculation of the inhibitory activity of the test compound against PLK1 was performed as a test compound concentration inhibiting 50% of the amount of ^33P bound to casein (IC50 value) by using EXSUS (version 8.1.0, manufactured by CAC Exicare Corp.).
as §3

Compound	pKi (CDK2)	GI50 [1]	pKi (CDK7)	pKi (PLK1)
CCc1cccc(F)c1NC(=O)N1Cc2c(NC(=O)C(C)(C)[Si](C)(C)C)n[nH]c2C1(C)C [II-137, N-(2-Ethyl-6-fluorophenyl)-6,6-dimethyl-3-[2-methyl-2-(trimethylsilyl)propanamido]-4,6-dihydropyrrolo[3,4-c]pyrazole-5(1H)-carboxamide]	≤ 6.00	≤ 0.1 µM	≥ 7.30	≤ 5.30
CC1(C)c2[nH]nc(NC(=O)C(C)(C)[Si](C)(C)C)c2CN1C(=O)Nc1c(F)cccc1OC(F)F [II-169, N-[2-(Difluoromethoxy)-6-fluorophenyl]-6,6-dimethyl-3-[2-methyl-2-(trimethylsilyl)propanamido]-4,6-dihydropyrrolo[3,4-c]pyrazole-5(1H)-carboxamide]	≤ 6.00	≤ 0.1 µM	≥ 7.30	≤ 5.30
CC1(C)c2[nH]nc(NC(=O)C(C)(C)[Si](C)(C)C)c2CN1C(=O)Nc1c(Cl)cccc1Cl [II-199, N-(2,6-Dichlorophenyl)-6,6-dimethyl-3-[2-methyl-2-(trimethylsilyl)propanamido]-4,6-dihydropyrrolo[3,4-c]pyrazole-5(1H)-carboxamide]	≤ 6.00	≤ 0.1 µM	≥ 7.30	≤ 5.30
CC1(C)c2[nH]nc(NC(=O)C(C)(C)[Si](C)(C)C)c2CN1C(=O)Nc1c(F)ccc2ccoc12 [II-1049, N-(6-Fluorobenzofuran-7-yl)-6,6-dimethyl-3-[2-methyl-2-(trimethylsilyl)propanamido]-4,6-dihydropyrrolo[3,4-c]pyrazole-5(1H)-carboxamide]	≤ 6.00	≤ 0.1 µM	≥ 7.30	≤ 5.30
CCc1ccccc1NC(=O)N1Cc2c(NC(=O)C3([Si](C)(C)C)CCC3)n[nH]c2C1(C)C [IV-27, N-(2-Ethylphenyl)-6,6-dimethyl-3-[1-(trimethylsilyl)cyclobutanecarboxamido]-4,6-dihydropyrrolo[3,4-c]pyrazole-5(1H)-carboxamide]	≤ 6.00	≤ 0.1 µM	≥ 7.30	≤ 5.30
CC1(C)c2[nH]nc(NC(=O)C3([Si](C)(C)C)CCC3)c2CN1C(=O)Nc1ccccc1C1CC1 [IV-39, N-(2-Cyclopropylphenyl)-6,6-dimethyl-3-[1-(trimethylsilyl)cyclobutanecarboxamido]-4,6-dihydropyrrolo[3,4-c]pyrazole-5(1H)-carboxamide]	≤ 6.00	≤ 0.1 µM	≥ 7.30	≤ 5.30

Results, then the molecule that gave them:

pKi (CDK2)	GI50 [1]	pKi (CDK7)	pKi (PLK1)	Compound
≤ 6.00	≤ 0.1 µM	≥ 7.30	≤ 5.30	CCc1cccc(F)c1NC(=O)N1Cc2c(NC(=O)C3([Si](C)(C)C)CC3)n[nH]c2C1(C)C [III-137, N-(2-Ethyl-6-fluorophenyl)-6,6-dimethyl-3-[1-(trimethylsilyl)cyclopropanecarboxamido]-4,6-dihydropyrrolo[3,4-c]pyrazole-5 (1H)-carboxamide]
≤ 6.00	≤ 0.1 µM	≥ 7.30	≤ 5.30	CC1(C)c2[nH]nc(NC(=O)C3([Si](C)(C)C)CC3)c2CN1C(=O)Nc1c(F)cccc1OC(F)F [III-169, N-[2-(Difluoromethoxy)-6-fluorophenyl]-6,6-dimethyl-3-[1-(trimethylsilyl)cyclopropanecarboxamido]-4,6-dihydropyrrolo[3,4-c]pyrazole-5(1H)-carboxamide]
≤ 6.00	≤ 0.1 µM	≥ 7.30	≤ 5.30	CC1(C)c2[nH]nc(NC(=O)C3([Si](C)(C)C)CC3)c2CN1C(=O)Nc1c(Cl)cccc1Cl [III-199, N-(2,6-Dichlorophenyl)-6,6-dimethyl-3-[1-(trimethylsilyl)cyclopropanecarboxamido]-4,6-dihydropyrrolo[3,4-c]pyrazole-5(1H)-carboxamide]
≤ 6.00	≤ 0.1 µM	≥ 7.30	≤ 5.30	CC1(C)c2[nH]nc(NC(=O)C3([Si](C)(C)C)CC3)c2CN1C(=O)Nc1c(F)ccc2ccoc12 [III-1049, N-(6-Fluorobenzofuran-7-yl)-6,6-dimethyl-3-[1-(trimethylsilyl)cyclopropanecarboxamido]-4,6-dihydropyrrolo[3,4-c]pyrazole-5 (1H)-carboxamide]
